US20150283110A1, “COMPOSITION FOR PREVENTING OR TREATING HEART DISEASE” (AMOREPACIFIC CORPORATION, priority 2012, published 2015)

How the values were obtained:
SIRT1 gene [1] = assay: SIRT1 gene expression promoting effect in cardiomyocytes (RT-PCR); assay type: cell-based; set-up: change of the expression of the SIRT1 gene: dose or concentration left out as unconfirmed; settings: rat cardiomyocytes, FIG. 1; for change of the expression of the SIRT1 gene: serum-free, 24 hours, DMSO control
Description: The SIRT1 gene expression promoting effect of the two optical isomers of syringaresinol in rat cardiomyocytes was evaluated as follows.
The heart of a 1-2 day old Sprague-Dawley rat was excised, immersed in an HBSS solution, cut into pieces with scissors and kept overnight in a trypsin/EDTA solution inside a shaker at 4° C. The next day, the trypsin solution was discarded and a 10% FCS/DMEM solution was added to inhibit trypsin activity. After discarding the FCS/DMEM, adding a collagenase solution and keeping in a shaking bath at 37° C. for about 3 minutes, only the supernatant was collected in a conical tube. This procedure was repeated three times. After centrifuging the collected solution at 750 rpm for 5 minutes, the resulting pellets were resuspended in a 10% FCS/DMEM solution, transferred to a culture flask and then incubated at 37° C. for 75 minutes. The suspension was transferred to a fresh culture flask, incubated again for 75 minutes, transferred to a conical tube and then plated after cell counting. The plated cells were cultured in a 10% FCS/DMEM medium for 3-4 days until confluence and the medium was treated respectively with the (+)-syringaresinol (50 mM) obtained in Example and with the (−)-syringaresinol (50 mM) obtained in Comparative Example for 24 hours after removing the serum. The control group was treated with DMSO. The treated cells were washed 2 times with cold PBS and RNA was extracted therefrom using the TRIzol reagent (Invitrogen). cDNA was synthesized from the extracted and quantitated 1 μg/μL RNA using a reverse transcription system (Promega). The expression profile of the SIRT1 and GAPDH genes was measured using the synthesized cDNA and primers and probes predesigned for the genes (Applied Biosystems; SIRT1, Hs01009006_m1; GAPDH, Hs99999905_m1). PCR reaction and analysis were conducted using the Rotor-Gene 3000 system (Corbett Research, Sydney, Australia).

cardiomyocytes = assay: Cardiomyocyte protection from cell death induced by reactive oxygen species (H2O2, MTT); assay type: cell-based, rat; settings: 250 mM H2O2 2 hours, then 5, 20 or 50 mM for 24 hours; MTT OD 540 nm; FIGS. 2 and 3
Description: Cardiomyocytes isolated and cultured according to the substantially same method as described in Test Example 1 were treated with 250 mM hydrogen peroxide (H2O2) for 2 hours in a serum-free medium to induce cell death by reactive oxygen species. 2 hours later, after removing the medium and washing with PBS, the cells were treated with 5, 20 or 50 mM (+)-syringaresinol and (−)-syringaresinol for 24 hours. After adding a 3-[4,5-dimethylthiazolyl]-2,5-diphenyltetrazolium bromide (MTT, Sigma) solution to the cells and incubating at 37° C. for 4 hours, dimethyl sulfoxide was added and the optical density (OD) of the formed formazan dye was measured at a wavelength of 540 nm using an ELISA reader (Thermo Max, Molecular Devices Co.).

SIRT1 gene [2] = assay: SIRT1 expression in vascular endothelial cells during induced aging (RT-PCR); assay type: cell-based; settings: human vascular endothelial cells, 50 mM every other day, FIG. 8
Description: Human vascular endothelial cells purchased from Lonza (Walkersville, Md., USA) were cultured using the endothelial cell growth medium EGM-2 SingleQuots (Lonza) in a 5% CO2 incubator until 70% confluence. […] The population doubling level (PDL) was calculated according to the following equation for each generation until the cell growth was stopped. The PDL value is higher in aged cells.
14 PDL cells were treated with syringaresinol obtained from ginseng berry [syn(GB)], synthesized (+)-syringaresinol [syn(+)], 1:1 [syn(+/−1:1)], 2:1 [syn(+/−2:1)], 5:1 [syn(syn(+/−5:1))] or 10:1 [syn(syn(+/−10:1))] mixture of synthesized (+)-syringaresinol and synthesized (−)-syringaresinol or syringaresinol obtained from eleuthero [syn(eleuthero)] at a concentration of 50 mM every other day while inducing aging to 40 PDL cells. The cells of a negative control group were treated with DMSO of 1/1000 of the volume of the medium. The cells treated with each sample were washed 2 times with cold PBS and RNA was extracted using the TRIzol reagent (Invitrogen). cDNA was synthesized from the extracted RNA (1 μg/μL) using a reverse transcription system (Promega). Subsequently, the expression profile of the SIRT1 and GAPDH genes was measured using the synthesized cDNA and primers and probes predesigned for the genes (Applied Biosystems; SIRT1, Hs01009006_m1; GAPDH, Hs99999905_m1). […]

Structure (SMILES)	change of the expression of the SIRT1 gene (SIRT1 gene [1])	effect of increasing the SIRT1 expression compared with syringaresinol obtained from ginseng berry (SIRT1 gene [1])	death of cardiomyocytes induced by reactive oxygen species (cardiomyocytes)	SIRT1 expression compared with cells treated with syringaresinol obtained from ginseng berry (SIRT1 gene [2])	SIRT1 expression as compared to the cells treated only with DMSO (SIRT1 gene [2]; 14 PDL to 40 PDL)
COc1cc(C2OCC3C(c4cc(OC)c(O)c(OC)c4)OCC23)cc(OC)c1O (centres unmarked) [syringaresinol obtained from ginseng berry]	increase the SIRT1 expression in cardiomyocyte in concentration-dependent manners	–	–	–	–
COc1cc([C@H]2OC[C@H]3[C@@H]2CO[C@@H]3c2cc(OC)c(O)c(OC)c2)cc(OC)c1O [(+)-syringaresinol, (8R,8′R)-(+)-syringaresinol]	increase the SIRT1 expression in cardiomyocyte in concentration-dependent manners	better effect of increasing the SIRT1 expression than the syringaresinol obtained from ginseng berry	suppressed the death of the cardiomyocytes induced by the reactive oxygen species in a concentration-dependent manner	higher SIRT1 expression than the cells treated with the syringaresinol obtained from ginseng berry	≥ 4 times
COc1cc(C2OCC3C(c4cc(OC)c(O)c(OC)c4)OCC23)cc(OC)c1O (single isomer, unassigned; (-)) [(−)-syringaresinol, reference compound]	cannot increase the expression of the SIRT1 gene	–	promoted cell death	–	–
